From patent US10428087B2, “Pyrimidinones as PI3K inhibitors” (Incyte Corporation, priority 2009, dated 2019)
pIC50: −log10 of the molar value.

Experiments:
PI3Kα = PI3Kα (Homo sapiens (Human), UniProt P42336); experiment: PI3K enzyme assay, [γ-33P]ATP filter plate (Example A2), PI3Kα; format: biochemical; settings: read-out: PI3Kα^c IC50
Description: Materials: Lipid kinase substrate, phosphoinositol-4,5-bisphosphate (PIP2), was purchased from Echelon Biosciences (Salt Lake City, Utah). PI3K isoforms α, β, δ and γ were purchased from Millipore (Bedford, Mass.). […] The kinase reaction was conducted in clear-bottom 96-well plate from Thermo Fisher Scientific in a final volume of 24 μL. Inhibitors were first diluted serially in DMSO and added to the plate wells before the addition of other reaction components. The final concentration of DMSO in the assay was 0.5%. The PI3K assays were carried out at room temperature in 20 mM MOPS, pH 6.7, 10 mM MgCl2, 5 mM DTT and CHAPS 0.03%. The reaction mixture was prepared containing 50 μM PIP2, kinase and varying concentration of inhibitors. Reactions were initiated by the addition of ATP containing 2.2 μCi [γ-^33P]ATP to a final concentration of 1000 μM. […] Reactions were incubated for 180 min and terminated by the addition of 100 μL of 1 M potassium phosphate pH 8.0, 30 mM EDTA quench buffer. […] The filter plate was aspirated on a Millipore Manifold under vacuum and washed with 18×200 μL wash buffer containing 1 M potassium phosphate pH 8.0 and 1 mM ATP. After drying by aspiration and blotting, the plate was air dried in an incubator at 37° C. overnight. […] After the plate sealing, the radioactivity of the product was determined by scintillation counting on Topcount (Perkin-Elmer). […]

PI3Kβ = PI3Kβ (Homo sapiens (Human), UniProt P42338); experiment: PI3K enzyme assay, [γ-33P]ATP filter plate (Example A2), PI3Kβ; format: biochemical; settings: read-out: PI3Kβ^c IC50
PI3Kβ, sequence (P42338 whole entry, species assumed, canonical isoform): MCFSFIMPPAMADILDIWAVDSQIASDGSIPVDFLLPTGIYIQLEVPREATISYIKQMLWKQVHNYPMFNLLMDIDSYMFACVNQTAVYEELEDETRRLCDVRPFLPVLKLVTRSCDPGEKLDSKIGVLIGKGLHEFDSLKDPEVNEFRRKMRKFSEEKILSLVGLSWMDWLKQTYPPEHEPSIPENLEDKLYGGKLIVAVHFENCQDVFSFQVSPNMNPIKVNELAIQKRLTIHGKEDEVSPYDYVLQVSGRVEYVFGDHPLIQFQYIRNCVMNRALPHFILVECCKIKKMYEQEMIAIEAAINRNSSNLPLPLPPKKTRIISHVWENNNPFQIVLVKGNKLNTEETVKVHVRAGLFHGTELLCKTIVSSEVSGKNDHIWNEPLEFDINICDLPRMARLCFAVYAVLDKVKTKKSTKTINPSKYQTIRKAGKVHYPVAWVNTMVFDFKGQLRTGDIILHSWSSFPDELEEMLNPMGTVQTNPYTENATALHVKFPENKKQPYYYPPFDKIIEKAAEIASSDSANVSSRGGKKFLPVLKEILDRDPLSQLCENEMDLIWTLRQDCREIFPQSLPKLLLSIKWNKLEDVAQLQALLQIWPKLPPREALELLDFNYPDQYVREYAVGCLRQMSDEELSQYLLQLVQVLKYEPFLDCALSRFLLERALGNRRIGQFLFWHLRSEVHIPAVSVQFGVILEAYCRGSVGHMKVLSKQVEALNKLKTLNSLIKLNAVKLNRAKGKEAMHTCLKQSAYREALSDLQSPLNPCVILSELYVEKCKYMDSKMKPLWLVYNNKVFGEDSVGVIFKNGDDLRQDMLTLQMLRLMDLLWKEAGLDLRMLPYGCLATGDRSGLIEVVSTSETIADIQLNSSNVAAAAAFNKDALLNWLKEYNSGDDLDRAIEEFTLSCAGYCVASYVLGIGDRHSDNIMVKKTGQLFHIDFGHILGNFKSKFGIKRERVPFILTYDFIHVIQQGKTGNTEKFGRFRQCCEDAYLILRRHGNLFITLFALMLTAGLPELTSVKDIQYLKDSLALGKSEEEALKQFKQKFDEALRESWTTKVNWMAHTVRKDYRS
PI3Kβ, sequence (P27986 whole entry partner, species assumed, canonical isoform): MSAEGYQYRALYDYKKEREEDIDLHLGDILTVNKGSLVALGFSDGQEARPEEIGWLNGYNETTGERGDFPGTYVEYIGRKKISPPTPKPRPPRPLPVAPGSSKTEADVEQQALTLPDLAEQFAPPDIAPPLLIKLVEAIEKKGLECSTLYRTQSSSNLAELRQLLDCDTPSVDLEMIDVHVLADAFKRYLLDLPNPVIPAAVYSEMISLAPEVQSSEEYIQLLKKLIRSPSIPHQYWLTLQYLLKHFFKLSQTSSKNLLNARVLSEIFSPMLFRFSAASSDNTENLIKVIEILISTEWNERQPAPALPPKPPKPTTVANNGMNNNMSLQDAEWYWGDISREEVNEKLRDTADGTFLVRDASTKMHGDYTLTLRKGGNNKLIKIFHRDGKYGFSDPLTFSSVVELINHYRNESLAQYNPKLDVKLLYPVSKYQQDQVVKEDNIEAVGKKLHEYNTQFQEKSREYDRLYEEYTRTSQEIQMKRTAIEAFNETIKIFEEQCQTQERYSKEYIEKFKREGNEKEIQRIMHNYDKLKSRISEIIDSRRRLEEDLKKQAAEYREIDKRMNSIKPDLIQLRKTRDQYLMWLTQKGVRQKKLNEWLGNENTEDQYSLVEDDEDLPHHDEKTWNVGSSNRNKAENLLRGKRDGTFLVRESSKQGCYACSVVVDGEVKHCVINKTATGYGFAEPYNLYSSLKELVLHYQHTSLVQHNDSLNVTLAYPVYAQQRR
Description: Materials: Lipid kinase substrate, phosphoinositol-4,5-bisphosphate (PIP2), was purchased from Echelon Biosciences (Salt Lake City, Utah). PI3K isoforms α, β, δ and γ were purchased from Millipore (Bedford, Mass.). ATP, MgCl2, DTT, EDTA, MOPS and CHAPS were purchased from Sigma—Aldrich (St. Louis, Mo.). The kinase reaction was conducted in clear-bottom 96-well plate from Thermo Fisher Scientific in a final volume of 24 μL. Inhibitors were first diluted serially in DMSO and added to the plate wells before the addition of other reaction components. The final concentration of DMSO in the assay was 0.5%. The PI3K assays were carried out at room temperature in 20 mM MOPS, pH 6.7, 10 mM MgCl2, 5 mM DTT and CHAPS 0.03%. The reaction mixture was prepared containing 50 μM PIP2, kinase and varying concentration of inhibitors. Reactions were initiated by the addition of ATP containing 2.2 μCi [γ-^33P]ATP to a final concentration of 1000 μM. […] Reactions were incubated for 180 min and terminated by the addition of 100 μL of 1 M potassium phosphate pH 8.0, 30 mM EDTA quench buffer. […] After the plate sealing, the radioactivity of the product was determined by scintillation counting on Topcount (Perkin-Elmer). […]

PI3Kγ = PI3Kγ (Homo sapiens (Human), UniProt P48736); experiment: PI3K enzyme assay, [γ-33P]ATP filter plate (Example A2), PI3Kγ; format: biochemical; settings: read-out: PI3Kγ^c IC50
PI3Kγ, sequence (P48736 whole entry, species assumed, canonical isoform): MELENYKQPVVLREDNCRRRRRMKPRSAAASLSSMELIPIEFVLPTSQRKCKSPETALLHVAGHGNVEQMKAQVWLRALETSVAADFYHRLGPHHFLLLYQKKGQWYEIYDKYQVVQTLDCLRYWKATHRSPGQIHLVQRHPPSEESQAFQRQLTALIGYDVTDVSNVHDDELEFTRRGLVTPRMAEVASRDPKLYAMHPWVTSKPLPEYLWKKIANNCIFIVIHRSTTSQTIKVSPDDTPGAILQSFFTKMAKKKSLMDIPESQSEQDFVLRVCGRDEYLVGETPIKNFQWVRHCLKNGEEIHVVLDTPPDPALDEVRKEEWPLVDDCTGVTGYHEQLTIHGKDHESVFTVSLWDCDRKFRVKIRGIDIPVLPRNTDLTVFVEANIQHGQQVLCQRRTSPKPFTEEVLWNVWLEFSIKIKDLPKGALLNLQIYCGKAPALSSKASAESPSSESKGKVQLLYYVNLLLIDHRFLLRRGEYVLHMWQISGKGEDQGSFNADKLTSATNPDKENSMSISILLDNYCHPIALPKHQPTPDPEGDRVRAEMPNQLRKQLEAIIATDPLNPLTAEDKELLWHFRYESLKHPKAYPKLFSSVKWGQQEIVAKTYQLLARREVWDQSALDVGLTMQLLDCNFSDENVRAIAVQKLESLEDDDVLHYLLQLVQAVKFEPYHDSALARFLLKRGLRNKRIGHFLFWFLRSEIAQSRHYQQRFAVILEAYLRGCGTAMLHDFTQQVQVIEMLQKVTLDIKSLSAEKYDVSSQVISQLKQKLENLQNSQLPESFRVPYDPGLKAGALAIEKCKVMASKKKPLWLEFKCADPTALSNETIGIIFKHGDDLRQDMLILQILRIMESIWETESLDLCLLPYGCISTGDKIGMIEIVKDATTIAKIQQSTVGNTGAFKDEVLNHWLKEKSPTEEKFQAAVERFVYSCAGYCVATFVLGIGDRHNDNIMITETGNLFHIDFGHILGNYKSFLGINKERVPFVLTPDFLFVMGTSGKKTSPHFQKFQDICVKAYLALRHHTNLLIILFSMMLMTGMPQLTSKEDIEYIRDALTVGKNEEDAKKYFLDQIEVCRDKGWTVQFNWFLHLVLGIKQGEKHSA
Description: Materials: Lipid kinase substrate, phosphoinositol-4,5-bisphosphate (PIP2), was purchased from Echelon Biosciences (Salt Lake City, Utah). PI3K isoforms α, β, δ and γ were purchased from Millipore (Bedford, Mass.). ATP, MgCl2, DTT, EDTA, MOPS and CHAPS were purchased from Sigma—Aldrich (St. Louis, Mo.).
The kinase reaction was conducted in clear-bottom 96-well plate from Thermo Fisher Scientific in a final volume of 24 μL. Inhibitors were first diluted serially in DMSO and added to the plate wells before the addition of other reaction components. The final concentration of DMSO in the assay was 0.5%. The PI3K assays were carried out at room temperature in 20 mM MOPS, pH 6.7, 10 mM MgCl2, 5 mM DTT and CHAPS 0.03%. The reaction mixture was prepared containing 50 μM PIP2, kinase and varying concentration of inhibitors. Reactions were initiated by the addition of ATP containing 2.2 μCi [γ-^33P]ATP to a final concentration of 1000 μM. The final concentration of PI3K isoforms α, β, δ and γ in the assay were 1.3, 9.4, 2.9 and 10.8 nM respectively. Reactions were incubated for 180 min and terminated by the addition of 100 μL of 1 M potassium phosphate pH 8.0, 30 mM EDTA quench buffer. […] After the plate sealing, the radioactivity of the product was determined by scintillation counting on Topcount (Perkin-Elmer). […]

[1] = test system: Pfeiffer cell line (diffuse large B cell lymphoma); experiment: Pfeiffer cell proliferation assay (Example B2); format: cell-based; settings: Pfeiffer cells, [3H]-thymidine
Description: Pfeiffer cell line (diffuse large B cell lymphoma) was purchased from ATCC (Manassas, Va.) and maintained in the culture medium recommended (RPMI and 10% FBS). To measure the anti-proliferation activity of the PI3Kδ submittals, the Pfeiffer cells were plated with the culture medium (2×10^3 cells/well/per 200 μl) into 96-well ultra-low binding plates (Corning, Corning, N.Y.), in the presence or absence of a concentration range of test compounds. After 3-4 days, [^3H]-thymidine (1 μCi/well) (PerkinElmer, Boston, Mass.) in PBS was then added to the cell culture for an additional 12 hrs before the incorporated radioactivity was separated by filtration with water through GF/B filters (Packard Bioscience, Meridenj, Conn.) and measured by liquid scintillation counting with a TopCount (Packard Bioscience). See Table 3 for data related to compounds of the invention.

B cells = experiment: B cell proliferation assay (Example B1); format: cell-based; settings: purified human B cells, anti-human IgM, [3H]-thymidine
Description: To acquire B cells, human PBMC were isolated from the peripheral blood of normal, drug free donors by standard density gradient centrifugation on Ficoll-Hypague (GE Healthcare, Piscataway, N.J.) and incubated with anti-CD19 microbeads (Miltenyi Biotech, Auburn, Calif.). The B cells were then purified by positive immunosorting using an autoMacs (Miltenyi Biotech) according to the manufacturer's instruction.
The purified B cells (2×10^5/well/200 μL) were cultured in 96-well ultra-low binding plates (Corning, Corning, N.Y.) in RPMI1640, 10% FBS and goat F(ab′)2 anti-human IgM ([…]) (Invitrogen, Carlsbad, Calif.), in the presence of different amount of test compounds, […] [^3H]-thymidine (1 μCi/well) (PerkinElmer, Boston, Mass.) in PBS was then added to the B cell cultures for an additional 12 hrs before the incorporated radioactivity was separated by filtration with water through GF/B filters (Packard Bioscience, Meriden, Conn.) and measured by liquid scintillation counting with a TopCount (Packard Bioscience). […] See Table 2 for data related to compounds of the invention.

PI3Kα, sequence (P42336 whole entry, species assumed, canonical isoform): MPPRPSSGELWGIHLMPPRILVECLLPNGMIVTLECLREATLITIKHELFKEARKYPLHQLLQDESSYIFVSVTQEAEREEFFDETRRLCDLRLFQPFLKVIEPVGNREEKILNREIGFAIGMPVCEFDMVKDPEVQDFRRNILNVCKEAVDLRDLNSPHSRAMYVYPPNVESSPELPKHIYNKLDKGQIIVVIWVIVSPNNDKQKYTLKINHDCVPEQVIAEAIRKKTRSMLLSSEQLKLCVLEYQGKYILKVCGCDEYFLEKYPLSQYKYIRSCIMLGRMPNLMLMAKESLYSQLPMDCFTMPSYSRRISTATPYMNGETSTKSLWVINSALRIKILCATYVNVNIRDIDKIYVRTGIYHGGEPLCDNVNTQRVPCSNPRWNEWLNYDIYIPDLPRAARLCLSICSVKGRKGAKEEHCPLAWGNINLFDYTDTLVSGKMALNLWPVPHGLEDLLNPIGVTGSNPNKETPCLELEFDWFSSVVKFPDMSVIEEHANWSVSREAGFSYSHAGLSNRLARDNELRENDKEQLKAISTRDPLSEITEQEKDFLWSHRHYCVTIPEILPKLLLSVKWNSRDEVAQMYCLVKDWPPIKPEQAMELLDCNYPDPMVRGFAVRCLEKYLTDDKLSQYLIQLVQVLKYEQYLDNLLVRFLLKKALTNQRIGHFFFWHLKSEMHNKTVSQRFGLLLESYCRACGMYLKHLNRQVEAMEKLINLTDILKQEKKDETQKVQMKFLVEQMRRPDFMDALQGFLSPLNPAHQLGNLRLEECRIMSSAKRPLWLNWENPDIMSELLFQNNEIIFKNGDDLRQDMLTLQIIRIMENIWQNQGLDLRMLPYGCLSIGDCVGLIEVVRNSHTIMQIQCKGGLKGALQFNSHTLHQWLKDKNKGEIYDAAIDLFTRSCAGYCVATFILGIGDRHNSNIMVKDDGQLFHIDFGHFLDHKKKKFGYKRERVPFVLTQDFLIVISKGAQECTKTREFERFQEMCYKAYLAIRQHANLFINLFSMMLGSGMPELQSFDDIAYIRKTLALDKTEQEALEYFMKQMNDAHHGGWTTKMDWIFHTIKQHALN
PI3Kα, sequence (P27986 whole entry partner, species assumed, canonical isoform): as the sequence (P27986 whole entry partner, species assumed, canonical isoform) above

SMILES | pIC50 ([1]; Homo sapiens, Pfeiffer) | pIC50 (B cells; B-cell) | also measured
Cc1csc2nc(C(C)Nc3ncnc4[nH]cnc34)c(-c3cc(F)cc(F)c3)c(=O)n12 (single isomer, unassigned) [Example 44, 6-(3,5-difluorophenyl)-3-methyl-7-[1-(9H-purin-6-ylamino)ethyl]-5H-[1,3]thiazolo[3,2-a]pyrimidin-5-one] |  |  | pIC50 (PI3Kα): < 6.30; pIC50 (PI3Kβ): < 6.30; pIC50 (PI3Kγ): < 6.30
Cc1csc2nc(C(C)Nc3ncnc4[nH]cnc34)c(-c3cccc(F)c3)c(=O)n12 (stereo not shown) [Example 10, 6-(3-fluorophenyl)-3-methyl-7-[1-(9H-purin-6-ylamino)ethyl]-5H-[1,3]thiazolo[3,2-a]pyrimidin-5-one] | > 7.30 | > 7.30 | 
Cc1csc2nc(C(C)Nc3ncnc4[nH]cnc34)c(-c3cccc(F)c3)c(=O)n12 (stereo not shown) [Example 30, 6-(3-fluorophenyl)-3-methyl-7-[1-(9H-purin-6-ylamino)ethyl]-5H-[1,3]thiazolo[3,2-a]pyrimidin-5-one] |  |  | pIC50 [1]: > 7.30; pIC50 (B cells): > 7.30

Second part, led by results:

pIC50 ([1]; Homo sapiens, Pfeiffer) | SMILES | pIC50 (B cells; B-cell) | also measured
> 7.30 | Cc1csc2nc(C(C)Nc3ncnc4[nH]cnc34)c(-c3ccccc3)c(=O)n12 (stereo not shown) [Example 8, 3-methyl-6-phenyl-7-[1-(9H-purin-6-ylamino)ethyl]-5H-[1,3]thiazolo[3,2-a]pyrimidin-5-one] | > 7.30 | 
> 7.30 | Cc1csc2nc(C(C)Nc3nc(N)nc4[nH]cnc34)c(-c3ccccc3)c(=O)n12 (stereo not shown) [Example 9, 7-{1-[(2-amino-9H-purin-6-yl)amino]ethyl}-3-methyl-6-phenyl-5H-[1,3]thiazolo[3,2-a]pyrimidin-5-one] | > 7.30 | 
> 7.30 | Cc1csc2nc(C(C)Nc3nc(N)nc4[nH]cnc34)c(-c3cccc(F)c3)c(=O)n12 (stereo not shown) [Example 11, 7-{1-[(2-amino-9H-purin-6-yl)amino]ethyl}-6-(3-fluorophenyl)-3-methyl-5H-[1,3]thiazolo[3,2-a]pyrimidin-5-one] | > 7.30 | 
